Measured values published in US20030113742A1, “Methods and compositions for the modulation of biofilm formation” (priority 2001, published 2003).

Experiments:
[1] = test system: P. aeruginosa wild-type and rpoS mutant biofilms; assay: Killing of wild-type and rpoS mutant biofilms by tobramycin; format: cell-based, Pseudomonas aeruginosa; details: increasing amounts of tobramycin
Protocol: To examine the involvement of rpoS in biofilm development, the wild-type strain and an isogenic rpoS mutant strain were grown in flow cell reactors and both were tagged with a gfp plasmid which expresses green fluorescent protein (GFP) (Whitely, et al. (2000) J. Bacteriology 182:4356-4360). The P. aeruginosa biofilms that developed in the flow cells were examined by scanning confocal laser microscopy. Within four hours, differences between the rpoS mutant and the wild-type biofilms were evident. The mutant had attached to and covered much more of the glass surface. In a quantitative microtitre dish assay, biofilm formation of the parent strain was 38% of the rpoS mutant. After 24 hours, the mutant biofilm had matured and large structured groups of bacteria were evident.
To assess whether rpoS influences the susceptibility of P. aeruginosa biofilms to antibiotics, biofilms of the P. aeruginosa wild-type and rpoS mutant were treated with increasing amounts of the aminoglycoside antibiotic tobramycin. […] These studies confirm that the microarray experiment, as described herein, identified a gene important for biofilm development and antibiotic susceptibility.

[2] = test system: planktonic P. aeruginosa PAO1; assay: Minimum inhibitory concentration for planktonic cells; format: cell-based, Pseudomonas aeruginosa PAO1
P. aeruginosa biofilms [3] = assay: Plate counting of biofilm cell numbers after tobramycin; format: cell-based, Pseudomonas aeruginosa PAO1; details: 5 μg/ml
Protocol: (§1) P. aeruginosa PAO1 was grown at 37° C. with aeration in chemostat vessels (100 ml of medium, dilution rate, 0.2 h^−1). The growth medium consisted of 0.5% NH4Cl, 0.25% NaCl, 0.015% KH2PO4, 1.5% MOPS (pH, 7.0), and 0.015% casamino acids. For biofilms, the chemostat vessel contained 100 g of sterilized granite pebbles (approximately 70 pebbles). Vessels were inoculated with approximately 10^6 P. aeruginosa cells. For biofilm cultures, cells were allowed to attach to the rocks for 24 h prior to initiating the flow of medium, after which flow was initiated at a high rate (100 ml/h). After 2 h at this flow rate, more than 99% of all unattached bacteria were washed away. Flow was then decreased to give a final dilution rate identical to that in the planktonic chemostat. After 5 days cell numbers in the biofilm and planktonic chemostats were similar ([…]) as determined with standard plate counting techniques. To remove biofilm bacteria for plate counting, rocks were vortexed for 2 minutes in 5 ml phosphate buffered saline. A small planktonic population was present in the biofilm reactors throughout the experiment, but never represented more than 0.1% of the total chemostat population.
The existence in a biofilm might induce moderate levels of resistance to all antimicrobial treatments. […]

P. aeruginosa biofilms [4] = assay: Microarray of genes regulated by tobramycin in P. aeruginosa biofilms; format: cell-based, Pseudomonas aeruginosa PAO1; details: for Fold activation ± SE: tobramycin 5 μg/ml 24 h, treated vs untreated biofilms
Protocol: as §1
RNA was isolated from planktonic and biofilm bacteria using the Trizol reagent (Life Technologies, Grand Island, N.Y.). Planktonic cells were pelleted by centrifugation (10,000 rpm for 10 min) at 4° C. For biofilm RNA isolation, rocks containing biofilm bacteria were rinsed with sterile medium and suspended in Trizol reagent. After vortexing for 1 min the rocks were removed and the remaining cell material was sonicated for 10 s. Insoluble material was removed by centrifugation and RNA was isolated as described above. Contaminating DNA was eliminated by DNase treatment, and RNA was isolated by phenol-chloroform extraction and precipitation with LiCl. cDNA probes were produced from RNA using random primers (NSNSNSNSNS) and Cy5-dCTP or Cy3-dCTP (Amersham, Buckinghamshire, UK) according to previously described procedures (J. K. Ichikawa, et al., Proc. Natl. Acad. Sci. U.S.A. 97, 9659 (2000)). To avoid complications associated with Cy5-dCTP and Cy3-dCTP incorporation rates into resulting cDNA, each RNA comparison was performed with both dye combinations on separate microarrays.
The microarrays were glass microscope slides containing representative gene-specific DNA fragments from 5,500 of the estimated 5,570 open reading frames (ORFs) of P. aeruginosa. The microarrays were printed with a Generation II Array printer (Molecular Dynamics), and the hybridized microarrays were images with a Generation II scanning confocal fluorescent microscope (Molecular Dynamics).
The existence in a biofilm might induce moderate levels of resistance to all antimicrobial treatments. This could afford cells in a biofilm the opportunity to respond to an antibiotic by inducing genes more specific to that antibiotic. Thus, biofilms exposed to tobramycin were compared with untreated biofilms. Tobramycin (5 μg/ml) was added to influent medium after 4 days of biofilm growth. After 24 h, biofilms were removed and processed for RNA.
The results (shown in Table 2, below) are from two independent experiments (1 standard error of the mean, SE). Positive values represent activation and negative values represent repression. Gene identifications and P. aeruginosa ORF numbers were obtained from the Pseudomonas Genome Project website. Genes that were repressed in biofilms and activated by tobramycin are underlined. Genes that were activated in biofilms and repressed by tobramycin are shown in italics and bold-face type. Eight of the 20 genes identified as being differentially expressed in tobramycin-treated biofilms (Table 2) were also identified as being differentially expressed in biofilms as compared to planktonic bacterial cells. […]

[5] = tobramycin-treated vs untreated biofilms, 7× MIC for planktonic cells

What does the source list for `NC[C@H]1O[C@H](O[C@H]2[C@H](O)[C@@H](O[C@H]3O[C@H](CO)[C@@H](O)[C@H](N)[C@H]3O)[C@H](N)C[C@@H]2N)[C@H](N)C[C@@H]1O` [tobramycin]?
resistance of rpoS mutant biofilms to killing by tobramycin compared with wild-type biofilms [1]: much more resistant; 5 μg/ml concentration as multiple of the minimum inhibitory concentration [2]: approximately 7 ×; effect on cell numbers in biofilms (P. aeruginosa biofilms [3]): did not significantly affect cell numbers in biofilms; Fold activation ± SE (P. aeruginosa biofilms [4]; gene: Conserved hypothetical protein (PA2498)): 2.9 ± 0.6 Fold; Fold activation ± SE (P. aeruginosa biofilms [4]; gene: Conserved hypothetical protein (PA3463)): 8.3 ± 3.2 Fold; Fold activation ± SE (P. aeruginosa biofilms [4]; gene: Conserved hypothetical protein (PA3785)): 5.0 ± 1.3 Fold; Fold activation ± SE (P. aeruginosa biofilms [4]; gene: Conserved hypothetical protein (PA3819)): 2.1 ± 0.3 Fold; Fold activation ± SE (P. aeruginosa biofilms [4]; gene: DnaK (PA4761)): 2.7 ± 0.4 Fold; Fold activation ± SE (P. aeruginosa biofilms [4]; gene: GroES (PA4386)): 5.8 ± 1.1 Fold; Fold activation ± SE (P. aeruginosa biofilms [4]; gene: Hypothetical protein (PA1110)): 8.7 ± 1.7 Fold; Fold activation ± SE (P. aeruginosa biofilms [4]; gene: Hypothetical protein (PA1870), negative = repression): −6.4 ± 1.5 Fold; Fold activation ± SE (P. aeruginosa biofilms [4]; gene: Hypothetical protein (PA1893), negative = repression): −2.4 ± 0.3 Fold; Fold activation ± SE (P. aeruginosa biofilms [4]; gene: Hypothetical protein (PA2703)): 19.3 ± 3.7 Fold; Fold activation ± SE (P. aeruginosa biofilms [4]; gene: Hypothetical protein (PA3884), negative = repression): −14.7 ± 5.7 Fold; Fold activation ± SE (P. aeruginosa biofilms [4]; gene: Hypothetical protein (PA4326)): 23.2 ± 7.5 Fold; Fold activation ± SE (P. aeruginosa biofilms [4]; gene: Hypothetical protein of bacteriophage PF1 (PA0721), negative = repression): −3.9 ± 1.0 Fold; Fold activation ± SE (P. aeruginosa biofilms [4]; gene: Hypothetical protein of bacteriophage PF1 (PA0725), negative = repression): −3.1 ± 0.5 Fold; Fold activation ± SE (P. aeruginosa biofilms [4]; gene: Probable DNA binding protein (PA5348)): 18.1 ± 4.9 Fold; Fold activation ± SE (P. aeruginosa biofilms [4]; gene: Probable drug efflux protein (PA1541)): 4.7 ± 1.4 Fold; Fold activation ± SE (P. aeruginosa biofilms [4]; gene: Probable metal transporting P-type ATPase (PA3920)): 3.6 ± 1.1 Fold; Fold activation ± SE (P. aeruginosa biofilms [4]; gene: Probable transcriptional regulator (PA3574)): 3.3 ± 0.6 Fold; Fold activation ± SE (P. aeruginosa biofilms [4]; gene: Ribosome modulation factor (PA3049)): 24.7 ± 11.4 Fold; Fold activation ± SE (P. aeruginosa biofilms [4]; gene: Urease beta subunit (PA4867), negative = repression): −3.7 ± 1.1 Fold; number of genes activated by tobramycin (P. aeruginosa biofilms [4]; [5]): 14; number of genes differentially expressed in tobramycin-treated biofilms (P. aeruginosa biofilms [4]; [5]): Twenty; number of genes repressed by tobramycin (P. aeruginosa biofilms [4]; [5]): 6
